{"source": "paper PMC9323797", "about": "“4-Substituted Thieno[3,2-d]pyrimidines as Dual-Stage Antiplasmodial Derivatives” (Pharmaceuticals, 2022)", "tested_on": "P. falciparum K1", "assay": "Blood-stage antiplasmodial evaluation (SYBR Green I fluorescence, 72 h)", "type": "cell-based, Plasmodium falciparum", "details": "for EC50: read-out: P. falciparum K1 EC50; for IC50: erythrocytic stage P. falciparum K1, read-out: IC50 (activity on Pf. K1)", "method": "A K1 culture-adapted P. falciparum strain resistant to chloroquine, pyrimethamine, and proguanil was used in an in vitro culture. It was maintained in a continuous culture, as described previously by Trager and Jensen. Cultures were maintained in fresh A+ human erythrocytes at 2.5% hematocrit in a complete medium (RPMI 1640 with 25 mM HEPES, 25 mM NaHCO3, and 10% of A+ human serum) at 37 °C under a reduced O2 atmosphere (gas mixture: 10% O2, 5% CO2, and 85% N2). Parasitemia was maintained daily between 1 and 3%. The P. falciparum drug susceptibility test was carried out by comparing quantities of DNA in treated and control cultures of parasite in human erythrocytes, according to a SYBR Green I fluorescence-based method using a 96-well fluorescence plate reader. Compounds, previously dissolved in DMSO (final concentration less than 0.5% v/v), were incubated in a total assay volume of 200 μL (RPMI, 2% hematocrit and 0.4% parasitemia) for 72 h in a humidified atmosphere (10% O2 and 5% CO2) at 37 °C, in 96-well flat bottom plates. Duplicate assays were performed for each sample. After incubation, plates were frozen at […] for 24 h. Then, the frozen plates were thawed for 1 h at 37 °C. A total of 15 μL of each sample was transferred to 96-well flat-bottom non-sterile black plates (Greiner Bio-One, Kremsmünster, Austria) already containing 15 μL of the SYBR Green I lysis buffer (2X SYBR Green I, 20 mM Tris base pH 7.5, 20 mM EDTA, 0.008% w/v saponin, 0.08% w/v Triton X-100). Negative control treated by solvents (DMSO or H2O) and positive controls (chloroquine) were added to each set of experiments. Plates were incubated for 15 min at 37 °C and then read on a TECAN Infinite F-200 spectrophotometer with excitation and emission wavelengths at 485 and 535 nm, respectively. The concentrations of compounds required to induce a 50% decrease in parasite growth (EC50 K1) were calculated from three independent experiments.", "key": {"[1]": {"details": "Plasmodium falciparum, K1, 72 h, asexual blood stages, drug-resistant K1 strain, 72 h incubation, mean ± SD of three independent experiments"}, "[2]": {"details": "asexual blood stages, drug-resistant K1 strain, 72 h incubation, mean ± SD of three independent experiments"}, "[3]": {"details": "Plasmodium falciparum, K1, 72 h"}}, "note": "Where two headings read alike, the source gives them in different places."}
{"molecule": "Cc1ccc(-c2cc3nc(NC(C)(C)C)ncc3s2)cc1", "note": "[Compound 13, N-(Tert-butyl)-6-(p-tolyl)thieno[3,2-d]pyrimidin-2-amine]", "values": [{"measurement": "EC50", "setting": "[1]", "value": "26.1 ± 2.2", "unit": "µM"}, {"measurement": "P. falciparum K1 EC50", "setting": "[2]", "value": "inactive"}]}
{"molecule": "Cc1ccc(-c2cc3nc(NC(C)(C)C)nc(-c4ccc(C)cc4)c3s2)cc1", "note": "[Compound 11a, N-(tert-butyl)-4,6-di-p-tolylthieno[3,2-d]pyrimidin-2-amine]", "values": [{"measurement": "EC50", "setting": "[1]", "value": "> 31", "unit": "µM"}]}
{"molecule": "Cc1ccc(-c2cc3nc(NC(C)(C)C)nc(Oc4ccccc4)c3s2)cc1", "note": "[Compound 8a, N-(tert-butyl)-4-phenoxy-6-(p-tolyl)thieno[3,2-d]pyrimidin-2-amine]", "values": [{"measurement": "EC50", "setting": "[1]", "value": "> 10", "unit": "µM"}]}
{"molecule": "Cc1ccc(-c2cc3nc(NC(C)(C)C)nc(C#Cc4ccccc4)c3s2)cc1", "note": "[Compound 12a, N-tert-butyl-6-(4-methylphenyl)-4-(phenylethynyl)thieno[3,2-d]pyrimidin-2-amine]", "values": [{"measurement": "EC50", "setting": "[1]", "value": "20.1 ± 4.1", "unit": "µM"}]}
{"molecule": "CCN(CC)CCCC(C)Nc1ccnc2cc(Cl)ccc12", "note": "(stereo not shown) [Chloroquine, reference compound]", "values": [{"measurement": "EC50", "setting": "[3]", "value": "0.8 ± 0.1", "unit": "µM"}]}
{"molecule": "Cc1ccc(-c2cc3nc(NC(C)(C)C)nc(-c4cccc(C)c4)c3s2)cc1", "note": "[Compound 11b, N-(tert-butyl)-4-(m-tolyl)-6-(p-tolyl)thieno[3,2-d]pyrimidin-2-amine]", "values": [{"measurement": "EC50", "setting": "[1]", "value": "> 31", "unit": "µM"}]}
{"molecule": "Cc1ccc(Sc2nc(NC(C)(C)C)nc3cc(-c4ccc(C)cc4)sc23)cc1", "note": "[Compound 9b, N-(tert-butyl)-6-(p-tolyl)-4-(p-tolylthio)thieno[3,2-d]pyrimidin-2-amine]", "values": [{"measurement": "EC50", "setting": "[1]", "value": "16.4 ± 1.9", "unit": "µM"}]}
{"molecule": "Cc1ccc(-c2cc3nc(NC(C)(C)C)nc(N[C@@H](C)C(=O)[O-])c3s2)cc1.O.O.O.[Na+]", "note": "[Compound 10j, Sodium (S)-2-((2-(Tert-butylamino)-6-(p-tolyl)thieno[3,2-d]pyrimidin-4-yl)amino)-propanoate trihydrate]", "values": [{"measurement": "EC50", "setting": "[3]", "value": "> 12.5", "unit": "µM"}, {"measurement": "P. falciparum K1 EC50", "setting": "[2]", "value": "loss of activity"}]}
{"molecule": "Cc1ccc(-c2cc3nc(NC(C)(C)C)nc(C#CCCO)c3s2)cc1", "note": "[Compound 12c, 4-[2-tert-butylamino-6-(4-methylphenyl)thieno[3,2-d]pyrimidin-4-yl]but-3-yn-1-ol]", "values": [{"measurement": "EC50", "setting": "[1]", "value": "14.2 ± 2.8", "unit": "µM"}]}
{"molecule": "Cc1ccc(-c2cc3nc(NC(C)(C)C)nc(Nc4ccccc4)c3s2)cc1", "note": "[Compound 10h, N^2-(tert-butyl)-N^4-phenyl-6-(p-tolyl)thieno[3,2-d]pyrimidine-2,4-diamine]", "values": [{"measurement": "EC50", "setting": "[1]", "value": "2 ± 0.4", "unit": "µM"}, {"measurement": "P. falciparum K1 EC50", "setting": "[2]", "value": "some activity was maintained"}]}
{"molecule": "Cc1ccc(-c2cc3nc(NC(C)(C)C)nc(NN)c3s2)cc1", "note": "[Compound 10i, N-(tert-butyl)-4-hydrazino-6-(p-tolyl)thieno[3,2-d]pyrimidin-2-amine]", "values": [{"measurement": "EC50", "setting": "[1]", "value": "2.2 ± 0.3", "unit": "µM"}, {"measurement": "IC50", "setting": "Plasmodium falciparum", "value": "~2", "unit": "µM"}]}
{"molecule": "CCOc1nc(NC(C)(C)C)nc2cc(-c3ccc(C)cc3)sc12", "note": "[Compound 7b, N-(tert-butyl)-4-ethoxy-6-(p-tolyl)thieno[3,2-d]pyrimidin-2-amine]", "values": [{"measurement": "EC50", "setting": "[1]", "value": "5.1 ± 1.3", "unit": "µM"}]}
{"molecule": "Cc1ccc(-c2cc3nc(NC(C)(C)C)nc(-c4ccsc4)c3s2)cc1", "note": "[Compound 11d, N-(tert-butyl)-4-(thiophen-3-yl)-6-(p-tolyl)thieno[3,2-d]pyrimidin-2-amine]", "values": [{"measurement": "EC50", "setting": "[1]", "value": "> 25", "unit": "µM"}]}
{"molecule": "Cc1ccc(Oc2nc(NC(C)(C)C)nc3cc(-c4ccc(C)cc4)sc23)cc1", "note": "[Compound 8b, N-(tert-butyl)-6-(p-tolyl)-4-(p-tolyloxy)thieno[3,2-d]pyrimidin-2-amine]", "values": [{"measurement": "EC50", "setting": "[1]", "value": "> 10", "unit": "µM"}]}
{"molecule": "COc1nc(NC(C)(C)C)nc2cc(-c3ccc(C)cc3)sc12", "note": "[Compound 7a, N-(tert-butyl)-4-methoxy-6-(p-tolyl)thieno[3,2-d]pyrimidin-2-amine]", "values": [{"measurement": "EC50", "setting": "[1]", "value": "7.6 ± 0.9", "unit": "µM"}]}
{"molecule": "Cc1ccc(-c2cc3nc(NC(C)(C)C)nc(C#CC4CC4)c3s2)cc1", "note": "[Compound 12b, N-tert-butyl-4-(cyclopropylethynyl)-6-(4-methylphenyl)thieno[3,2-d]pyrimidin-2-amine]", "values": [{"measurement": "EC50", "setting": "[1]", "value": "15.7 ± 2.4", "unit": "µM"}]}
{"molecule": "Cc1ccc(-c2cc3nc(NC(C)(C)C)nc(-c4cccnc4)c3s2)cc1", "note": "[Compound 11f, N-(tert-butyl)-4-(pyridin-3-yl)-6-(p-tolyl)thieno[3,2-d]pyrimidin-2-amine]", "values": [{"measurement": "EC50", "setting": "[1]", "value": "> 10", "unit": "µM"}]}
{"molecule": "Cc1ccc(-c2cc3nc(NC(C)(C)C)nc(-c4ccccc4)c3s2)cc1", "note": "[Compound 11c, N-(tert-butyl)-4-phenyl-6-(p-tolyl)thieno[3,2-d]pyrimidin-2-amine]", "values": [{"measurement": "EC50", "setting": "[1]", "value": "> 25", "unit": "µM"}]}
{"molecule": "Cc1ccc(-c2cc3nc(NC(C)(C)C)nc(Sc4ccccc4)c3s2)cc1", "note": "[Compound 9a, N-(tert-butyl)-6-(p-tolyl)-4-(phenylthio)thieno[3,2-d]pyrimidin-2-amine]", "values": [{"measurement": "EC50", "setting": "[1]", "value": "13.8 ± 1.7", "unit": "µM"}]}
{"molecule": "Cc1ccc(-c2cc3nc(NC(C)(C)C)nc(NC(C)C)c3s2)cc1", "note": "[Compound 10e, N^2-(tert-butyl)-N^4-isopropyl-6-(p-tolyl)thieno[3,2-d]pyrimidine-2,4-diamine]", "values": [{"measurement": "EC50", "setting": "[1]", "value": "2.4 ± 1", "unit": "µM"}, {"measurement": "IC50", "setting": "Plasmodium falciparum", "value": "~2", "unit": "µM"}]}
{"molecule": "N-(tert-butyl)-4-(1-methylhydrazinyl)-6-(p-tolyl)-3,4-dihydrothieno[3,2-d]pyrimidin-2-amine [Compound 10b]", "values": [{"measurement": "EC50", "setting": "[2]", "value": "2.2 ± 0.3", "unit": "µM"}, {"measurement": "IC50", "value": "~2", "unit": "µM"}]}
{"molecule": "Cc1ccc(-c2cc3nc(NC(C)(C)C)nc(-c4ccncc4)c3s2)cc1", "note": "[Compound 11e, N-(tert-butyl)-4-(pyridin-4-yl)-6-(p-tolyl)thieno[3,2-d]pyrimidin-2-amine]", "values": [{"measurement": "EC50", "setting": "[1]", "value": "28.1 ± 7", "unit": "µM"}]}
